Like-named read-outs stand apart in the source and are kept apart here.

Data set [1] deals with Human cytomegalovirus (HCMV). As to the kind of experiment: Anti-HCMV plaque reduction assay in monolayers of MRCS cells (human embryonic lung). It counts as cell-based. As to conditions: Human betaherpesvirus 5, 50% inhibitory concentration estimated from dose-response curve. On the procedure: Human cytomegalovirus (HCMV) is assayed in monolayers of MRCS cells (human embryonic lung) in multiwell trays. Activity of compounds is determined in the plaque reduction assay, in which a cell monolayer is infected with a suspension of HCMV. A range of concentrations of the compound to be tested (of known moiarity) is then incorporated into the carboxymethyl cellulose overlay. Plaque numbers of each concentration are expressed as percentage of the control and a dose-response curve is drawn. From this curve the 50% inhibitory concentration (IC50) is estimated.

The subject of data set [2] is human bon marrow progenitor cells (BFU-E). The data set is described as follows: Toxicity in human bone marrow progenitor cells in vitro, BFU-E. It is filed as cell-based. Particulars: 50% inhibition of bone marrow progenitor cells; three assays, marrow from three donors. How it is done: (§1) Compounds of formula (I) were tested fortoxicity in human bon marrow progenitor cells, in vitro, by the method of Dornsife, R. E. et at., 1991, Antimicrob. Agents Chemother., 35: 322-328. Three separate assays were performed using marrow from three different donors.

In data set [3] the test system is human bon marrow progenitor cells (CFU-GM). The data set is described as follows: Toxicity in human bone marrow progenitor cells in vitro, CFU-GM. It is filed as cell-based. How it is done:
as §1

Data set [4] relates to hepatitis B viral replication. Particulars: Proc. Natl. Acad. Sci. USA 1989, 86, 8541-8544; cited from earlier work.
The subject of data set [5] is herpes simplex virus type 1 (HSV-1). Particulars: J. Med. Chem. 1987, 30, 746-749; Biochem. Pharmacol. 1990, 40, 1515-1522; especially the (+)-enantiomer; cited from earlier work.
[6] abbreviates: 50% inhibition of bone marrow progenitor cells, three assays, marrow from three donors.

One may read the IC50 as the concentration that inhibits the measured activity by half. For the compound `Nc1nc(NCC2CC2)c2ncn([C@@H]3C[C@H](CO)[C@@H](O)C3)c2n1` (racemic) [Ex. 22, (±) (1S, 2R, 4R)-4-[2-Amino-6-(cyclopropylmethylamino)-9H-purin-9-yl]-2-(hydroxymethyl)-1-cyclopentanol], in data set [1], the IC50 is 3100 nM. Moreover, the “Cell Toxicity I50 BFU-E” value in data set [2] was >>50 μM. Moreover, in data set [3] (setting [6]), the “Cell Toxicity I50 CFU-GM” value came out at 34 ± 14 µM.

The melting point is the temperature of the solid-liquid transition. In turn, `Nc1nc(OC2CCCC2)c2ncn([C@@H]3C[C@H](CO)[C@@H](O)C3)c2n1` (racemic) [Example 28, (±)-(1S, 2R, 4R)-4-(2-Amino-6-(cyclopentyloxy)-9H-purin-9-yl)-2-(hydroxymethyl)-1-cyclopentanol] registered a melting point of 181 to 182 °C.

As for `Nc1nc2c(ncn2[C@@H]2C[C@H](CO)[C@@H](O)C2)c(=O)[nH]1` (relative stereo) [2′-CDG, (1R*, 3S*, 4R)-2-amino-1,9-dihydro-9-[3-hydroxy-4-hydroxymethyl)cyclopentyl]-6H-purine-6-one, reference compound], in data set [4], the “inhibition of hepatitis B viral replication” value is on record as “inhibits hepatitis B viral replication”. For the same compound, the “Cell Toxicity I50 BFU-E” value in data set [2] was determined as 4 ± 2 µM. Also, in data set [5], the “activity against HSV-1” value is “active against herpes simplex virus type 1”. Also, the “Cell Toxicity I50 CFU-GM” value in data set [3] stood at 0.4 ± 0.3 µM.

In the case of `Cl.Cl.Nc1nc(NC2CC2)c2ncn([C@H]3C[C@@H](CO)[C@H](O)C3)c2n1` (stereo in doubt), the melting point was greater than 250 °C.

Turning to `Nc1nc(NC2CC2)c2ncn([C@@H]3C[C@H](CO)[C@@H](O)C3)c2n1` (stereo in doubt) [Ex. 23, (±)-(1S, 2R, 4R)-4-[2-Amino-6-(cyclopropylamino)-9H-purin-9-yl]-2-(hydroxymethyl)-1-cyclopentanol], the melting point was in the range of 174 to 176 °C. In data set [1], the concentration for half-maximal inhibition (IC50) was 2800 nM. Besides, the “Cell Toxicity I50 BFU-E” value in data set [2] was determined as 55 ± 15 µM. Further, the “Cell Toxicity I50 CFU-GM” value in data set [3] (setting [6]) stood at 14 ± 1 µM.

The values above are taken from US6392085B1, “Therapeutic nucleosides” (SmithKline Beecham Corporation, priority 1992, dated 2002).
